Reference: US7799809B2, “Carboxamide compounds and their use as calpain inhibitors” (Abbott GmbH & Co. KG, priority 2006, dated 2010)

Key:
Type in all cases: biochemical
cathepsin L = molecular target: T1, cathepsin L (Homo sapiens, UniProt P07711); test: Cathepsin L enzyme inhibition in vitro (kinetic fluorescence assay); conditions: cathepsin L isolated from human liver vs calpain I
T1 construct: cathepsin L—isolated from human liver (Calbiochem #219402); purchased Calbiochem 219402; host or cells: human liver (tissue-derived)
T1 sequence (P07711 114-333): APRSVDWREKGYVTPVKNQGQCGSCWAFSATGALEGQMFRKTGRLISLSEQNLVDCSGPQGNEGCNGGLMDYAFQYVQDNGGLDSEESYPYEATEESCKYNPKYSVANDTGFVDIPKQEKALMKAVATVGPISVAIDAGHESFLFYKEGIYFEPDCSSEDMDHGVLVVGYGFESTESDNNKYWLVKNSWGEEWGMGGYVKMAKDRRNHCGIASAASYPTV
In short: (§1)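 Inhibition is measured at room temperature in cysteine-containing MES buffer, pH 6.0, by continuous fluorescence at 460 nm. Cathepsin S (0.5 nM) uses 20 μM Z-Val-Val-Arg-AMC; L (1 nM) and B (0.25 nM) use Z-Phe-Arg-AMC at 2 and 100 μM respectively.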

cathepsin K = molecular target: T2, cathepsin K (Homo sapiens, UniProt P43235); test: Cathepsin K enzyme inhibition in vitro (kinetic fluorescence assay); conditions: cathepsin K activated from recombinant human procathepsin K vs calpain I
T2 construct: purchased Calbiochem 342001; host or cells: E. coli
T2 sequence (P43235 115-329): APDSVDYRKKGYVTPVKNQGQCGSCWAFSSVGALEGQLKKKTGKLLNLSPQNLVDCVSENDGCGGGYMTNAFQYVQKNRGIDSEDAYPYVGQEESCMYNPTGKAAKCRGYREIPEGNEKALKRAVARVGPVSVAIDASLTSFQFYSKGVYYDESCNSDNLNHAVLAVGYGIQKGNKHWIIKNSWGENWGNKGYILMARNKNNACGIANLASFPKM

cathepsin S = molecular target: T3, cathepsin S (Homo sapiens, UniProt P25774); test: Cathepsin S enzyme inhibition in vitro (kinetic fluorescence assay); conditions: recombinant human cathepsin S vs calpain I
T3 construct: purchased Calbiochem 219343; host or cells: E. coli
T3 sequence (P25774 115-331): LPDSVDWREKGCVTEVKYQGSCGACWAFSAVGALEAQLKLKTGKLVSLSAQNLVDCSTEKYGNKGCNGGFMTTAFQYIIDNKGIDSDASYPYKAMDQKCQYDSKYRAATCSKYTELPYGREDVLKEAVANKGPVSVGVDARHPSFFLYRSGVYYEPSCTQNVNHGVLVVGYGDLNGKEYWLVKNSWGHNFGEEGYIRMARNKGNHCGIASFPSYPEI
In short: as §1

cathepsin B = molecular target: T4, cathepsin B (Homo sapiens, UniProt P07858); test: Cathepsin B enzyme inhibition in vitro (kinetic fluorescence assay); conditions: cathepsin B isolated from human liver vs calpain I
T4 construct: cathepsin B—isolated from human liver (Calbiochem #219362); purchased Calbiochem 219362; host or cells: human liver (tissue-derived)
In short: as §1

NC(=O)C(=O)C(Cc1ccccc1)NC(=O)c1cccnc1-n1ccc(-c2ccc(N3CCOCC3)cc2Cl)n1 (centres unmarked) [Example 99, N-[3-Amino-2,3-dioxo-1-(phenylmethyl)propyl]-2-[3-(2-chloro-4-morpholin-4-ylphenyl)-1H-pyrazol-1-yl]pyridine-3-carboxamide]
Sel cat. L: Ki(cathepsin L)/Ki(calpain) ratio (cathepsin L): ++ (++ means a Ki(cathepsin L)/Ki(calpain) ratio of ≧50) | Sel cat. K: Ki(cathepsin K)/Ki(calpain) ratio (cathepsin K): ++ (++ means a Ki(cathepsin K)/Ki(calpain) ratio of ≧30) | Sel cat. S: Ki(cathepsin S)/Ki(calpain) ratio (cathepsin S): ++ (++ means a Ki(cathepsin S)/Ki(calpain) ratio of ≧100) | Sel cat. B: Ki(cathepsin B)/Ki(calpain) ratio (cathepsin B): ++ (++ means a Ki(cathepsin B)/Ki(calpain) ratio of ≧30)

NC(=O)C(=O)C(Cc1ccccc1)NC(=O)c1cccnc1-n1ccc(-c2ccccc2F)n1 (centres unmarked) [Example 76, N-(3-Amino-1-benzyl-2,3-dioxopropyl)-2-[3-(2-fluorophenyl)-1H-pyrazol-1-yl]nicotinamide]
Sel cat. L: Ki(cathepsin L)/Ki(calpain) ratio (cathepsin L): ++ (++ means a Ki(cathepsin L)/Ki(calpain) ratio of ≧50) | Sel cat. K: Ki(cathepsin K)/Ki(calpain) ratio (cathepsin K): + (+ means 10≦Ki(cathepsin K)/Ki(calpain)<30) | Sel cat. S: Ki(cathepsin S)/Ki(calpain) ratio (cathepsin S): ++ (++ means a Ki(cathepsin S)/Ki(calpain) ratio of ≧100) | Sel cat. B: Ki(cathepsin B)/Ki(calpain) ratio (cathepsin B): ++ (++ means a Ki(cathepsin B)/Ki(calpain) ratio of ≧30)

COc1ccc(F)cc1-c1ccn(-c2ncccc2C(=O)NC(Cc2ccccc2)C(=O)C(N)=O)n1 (centres unmarked) [Example 130, N-[3-Amino-2,3-dioxo-1-(phenylmethyl)propyl]-2-{3-[5-fluoro-2-(methyloxy)phenyl]-1H-pyrazol-1-yl}pyridine-3-carboxamide]
Sel cat. L: Ki(cathepsin L)/Ki(calpain) ratio (cathepsin L): ++ (++ means a Ki(cathepsin L)/Ki(calpain) ratio of ≧50) | Sel cat. K: Ki(cathepsin K)/Ki(calpain) ratio (cathepsin K): ++ (++ means a Ki(cathepsin K)/Ki(calpain) ratio of ≧30) | Sel cat. S: Ki(cathepsin S)/Ki(calpain) ratio (cathepsin S): ++ (++ means a Ki(cathepsin S)/Ki(calpain) ratio of ≧100) | Sel cat. B: Ki(cathepsin B)/Ki(calpain) ratio (cathepsin B): ++ (++ means a Ki(cathepsin B)/Ki(calpain) ratio of ≧30)

NC(=O)C(=O)C(Cc1ccc(OC(F)(F)F)cc1)NC(=O)c1cccnc1-n1ccc(-c2ccccc2)n1 (centres unmarked) [Example 133, N-[3-Amino-2,3-dioxo-1-({4-[(trifluoromethyl)oxy]phenyl}methyl)propyl]-2-(3-phenyl-1H-pyrazol-1-yl)pyridine-3-carboxamide]
Sel cat. L: Ki(cathepsin L)/Ki(calpain) ratio (cathepsin L): ++ (++ means a Ki(cathepsin L)/Ki(calpain) ratio of ≧50) | Sel cat. K: Ki(cathepsin K)/Ki(calpain) ratio (cathepsin K): ++ (++ means a Ki(cathepsin K)/Ki(calpain) ratio of ≧30) | Sel cat. S: Ki(cathepsin S)/Ki(calpain) ratio (cathepsin S): ++ (++ means a Ki(cathepsin S)/Ki(calpain) ratio of ≧100) | Sel cat. B: Ki(cathepsin B)/Ki(calpain) ratio (cathepsin B): ++ (++ means a Ki(cathepsin B)/Ki(calpain) ratio of ≧30)

NC(=O)C(=O)C(Cc1ccccc1)NC(=O)c1cccnc1-n1ccc(-c2ccc(F)cc2F)n1 (centres unmarked) [Example 94, N-[3-Amino-2,3-dioxo-1-(phenylmethyl)propyl]-2-[3-(2,4-difluorophenyl)-1H-pyrazol-1-yl]pyridine-3-carboxamide]
Sel cat. L: Ki(cathepsin L)/Ki(calpain) ratio (cathepsin L): ++ (++ means a Ki(cathepsin L)/Ki(calpain) ratio of ≧50) | Sel cat. K: Ki(cathepsin K)/Ki(calpain) ratio (cathepsin K): + (+ means 10≦Ki(cathepsin K)/Ki(calpain)<30) | Sel cat. S: Ki(cathepsin S)/Ki(calpain) ratio (cathepsin S): ++ (++ means a Ki(cathepsin S)/Ki(calpain) ratio of ≧100) | Sel cat. B: Ki(cathepsin B)/Ki(calpain) ratio (cathepsin B): ++ (++ means a Ki(cathepsin B)/Ki(calpain) ratio of ≧30)

COc1ccc(CC(NC(=O)c2cccnc2-n2ccc(-c3cccc4ccccc34)n2)C(=O)C(N)=O)cc1 (centres unmarked) [Example 135, N-(3-Amino-1-{[4-(methyloxy)phenyl]methyl}-2,3-dioxopropyl)-2-(3-naphthalen-1-yl-1H-pyrazol-1-yl)pyridine-3-carboxamide]
Sel cat. L: Ki(cathepsin L)/Ki(calpain) ratio (cathepsin L): ++ (++ means a Ki(cathepsin L)/Ki(calpain) ratio of ≧50) | Sel cat. K: Ki(cathepsin K)/Ki(calpain) ratio (cathepsin K): ++ (++ means a Ki(cathepsin K)/Ki(calpain) ratio of ≧30) | Sel cat. S: Ki(cathepsin S)/Ki(calpain) ratio (cathepsin S): ++ (++ means a Ki(cathepsin S)/Ki(calpain) ratio of ≧100) | Sel cat. B: Ki(cathepsin B)/Ki(calpain) ratio (cathepsin B): ++ (++ means a Ki(cathepsin B)/Ki(calpain) ratio of ≧30)

NC(=O)C(=O)C(Cc1ccccc1)NC(=O)c1cccnc1-n1ccc(-c2cccc(Cl)c2)n1 (centres unmarked) [Example 70, N-(3-Amino-1-benzyl-2,3-dioxopropyl)-2-[3-(3-chlorophenyl)-1H-pyrazol-1-yl]nicotinamide]
Sel cat. L: Ki(cathepsin L)/Ki(calpain) ratio (cathepsin L): ++ (++ means a Ki(cathepsin L)/Ki(calpain) ratio of ≧50) | Sel cat. K: Ki(cathepsin K)/Ki(calpain) ratio (cathepsin K): + (+ means 10≦Ki(cathepsin K)/Ki(calpain)<30) | Sel cat. S: Ki(cathepsin S)/Ki(calpain) ratio (cathepsin S): ++ (++ means a Ki(cathepsin S)/Ki(calpain) ratio of ≧100) | Sel cat. B: Ki(cathepsin B)/Ki(calpain) ratio (cathepsin B): + (+ means 10≦Ki(cathepsin B)/Ki(calpain)<30)

NC(=O)C(=O)C(Cc1ccccc1)NC(=O)c1cccnc1-n1ccc(-c2ccc(N3CCOCC3)cc2F)n1 (centres unmarked) [Example 102, N-[3-Amino-2,3-dioxo-1-(phenylmethyl)propyl]-2-[3-(2-fluoro-4-morpholin-4-ylphenyl)-1H-pyrazol-1-yl]pyridine-3-carboxamide]
Sel cat. L: Ki(cathepsin L)/Ki(calpain) ratio (cathepsin L): ++ (++ means a Ki(cathepsin L)/Ki(calpain) ratio of ≧50) | Sel cat. K: Ki(cathepsin K)/Ki(calpain) ratio (cathepsin K): ++ (++ means a Ki(cathepsin K)/Ki(calpain) ratio of ≧30) | Sel cat. S: Ki(cathepsin S)/Ki(calpain) ratio (cathepsin S): ++ (++ means a Ki(cathepsin S)/Ki(calpain) ratio of ≧100) | Sel cat. B: Ki(cathepsin B)/Ki(calpain) ratio (cathepsin B): + (+ means 10≦Ki(cathepsin B)/Ki(calpain)<30)

NC(=O)C(=O)C(Cc1ccccc1)NC(=O)c1cccnc1-n1ccc(-c2cccc(C(F)(F)F)c2Cl)n1 (centres unmarked) [Example 155, N-[3-Amino-2,3-dioxo-1-(phenylmethyl)propyl]-2-{3-[2-chloro-3-(trifluoromethyl)phenyl]-1H-pyrazol-1-yl}pyridine-3-carboxamide]
Sel cat. L: Ki(cathepsin L)/Ki(calpain) ratio (cathepsin L): ++ (++ means a Ki(cathepsin L)/Ki(calpain) ratio of ≧50) | Sel cat. K: Ki(cathepsin K)/Ki(calpain) ratio (cathepsin K): ++ (++ means a Ki(cathepsin K)/Ki(calpain) ratio of ≧30) | Sel cat. S: Ki(cathepsin S)/Ki(calpain) ratio (cathepsin S): ++ (++ means a Ki(cathepsin S)/Ki(calpain) ratio of ≧100) | Sel cat. B: Ki(cathepsin B)/Ki(calpain) ratio (cathepsin B): ++ (++ means a Ki(cathepsin B)/Ki(calpain) ratio of ≧30)

NC(=O)C(=O)C(Cc1ccc(F)cc1)NC(=O)c1cccnc1-n1ccc(-c2ccccc2)n1 (centres unmarked) [Example 123, N-{3-Amino-1-[(4-fluorophenyl)methyl]-2,3-dioxopropyl}-2-(3-phenyl-1H-pyrazol-1-yl)pyridine-3-carboxamide]
Sel cat. L: Ki(cathepsin L)/Ki(calpain) ratio (cathepsin L): ++ (++ means a Ki(cathepsin L)/Ki(calpain) ratio of ≧50) | Sel cat. K: Ki(cathepsin K)/Ki(calpain) ratio (cathepsin K): ++ (++ means a Ki(cathepsin K)/Ki(calpain) ratio of ≧30) | Sel cat. S: Ki(cathepsin S)/Ki(calpain) ratio (cathepsin S): ++ (++ means a Ki(cathepsin S)/Ki(calpain) ratio of ≧100) | Sel cat. B: Ki(cathepsin B)/Ki(calpain) ratio (cathepsin B): ++ (++ means a Ki(cathepsin B)/Ki(calpain) ratio of ≧30)

NC(=O)C(=O)C(Cc1ccc(OC(F)(F)F)cc1)NC(=O)c1cccnc1-n1ccc(-c2ccc(F)cc2)n1 (centres unmarked) [Example 132, N-[3-Amino-2,3-dioxo-1-({4-[(trifluoromethyl)oxy]phenyl}methyl)propyl]-2-[3-(4-fluorophenyl)-1H-pyrazol-1-yl]pyridine-3-carboxamide]
Sel cat. L: Ki(cathepsin L)/Ki(calpain) ratio (cathepsin L): ++ (++ means a Ki(cathepsin L)/Ki(calpain) ratio of ≧50) | Sel cat. K: Ki(cathepsin K)/Ki(calpain) ratio (cathepsin K): ++ (++ means a Ki(cathepsin K)/Ki(calpain) ratio of ≧30) | Sel cat. S: Ki(cathepsin S)/Ki(calpain) ratio (cathepsin S): ++ (++ means a Ki(cathepsin S)/Ki(calpain) ratio of ≧100) | Sel cat. B: Ki(cathepsin B)/Ki(calpain) ratio (cathepsin B): + (+ means 10≦Ki(cathepsin B)/Ki(calpain)<30)

COc1ccc(CC(NC(=O)c2cccnc2-n2ccc(-c3ccc(F)cc3F)n2)C(=O)C(N)=O)cc1 (centres unmarked) [Example 97, N-(3-Amino-1-{[4-(methyloxy)phenyl]methyl}-2,3-dioxopropyl)-2-[3-(2,4-difluorophenyl)-1H-pyrazol-1-yl]pyridine-3-carboxamide]
Sel cat. L: Ki(cathepsin L)/Ki(calpain) ratio (cathepsin L): ++ (++ means a Ki(cathepsin L)/Ki(calpain) ratio of ≧50) | Sel cat. K: Ki(cathepsin K)/Ki(calpain) ratio (cathepsin K): + (+ means 10≦Ki(cathepsin K)/Ki(calpain)<30) | Sel cat. S: Ki(cathepsin S)/Ki(calpain) ratio (cathepsin S): ++ (++ means a Ki(cathepsin S)/Ki(calpain) ratio of ≧100) | Sel cat. B: Ki(cathepsin B)/Ki(calpain) ratio (cathepsin B): ++ (++ means a Ki(cathepsin B)/Ki(calpain) ratio of ≧30)

NC(=O)C(=O)C(Cc1ccccc1)NC(=O)c1cccnc1-n1ccc(-c2cccc(OCc3ccccc3)c2)n1 (centres unmarked) [Example 96, N-[3-Amino-2,3-dioxo-1-(phenylmethyl)propyl]-2-(3-{3-[(phenylmethyl)oxy]phenyl}-1H-pyrazol-1-yl)pyridine-3-carboxamide]
Sel cat. L: Ki(cathepsin L)/Ki(calpain) ratio (cathepsin L): ++ (++ means a Ki(cathepsin L)/Ki(calpain) ratio of ≧50) | Sel cat. K: Ki(cathepsin K)/Ki(calpain) ratio (cathepsin K): ++ (++ means a Ki(cathepsin K)/Ki(calpain) ratio of ≧30) | Sel cat. S: Ki(cathepsin S)/Ki(calpain) ratio (cathepsin S): ++ (++ means a Ki(cathepsin S)/Ki(calpain) ratio of ≧100) | Sel cat. B: Ki(cathepsin B)/Ki(calpain) ratio (cathepsin B): ++ (++ means a Ki(cathepsin B)/Ki(calpain) ratio of ≧30)

COc1ccc(CC(NC(=O)c2cccnc2-n2ccc(-c3cccc(Cl)c3Cl)n2)C(=O)C(N)=O)cc1 (centres unmarked) [Example 153, N-(3-Aamino-1-{[4-(methyloxy)phenyl]methyl}-2,3-dioxopropyl)-2-[3-(2,3-dichlorophenyl)-1H-pyrazol-1-yl]pyridine-3-carboxamide]
Sel cat. L: Ki(cathepsin L)/Ki(calpain) ratio (cathepsin L): ++ (++ means a Ki(cathepsin L)/Ki(calpain) ratio of ≧50) | Sel cat. K: Ki(cathepsin K)/Ki(calpain) ratio (cathepsin K): ++ (++ means a Ki(cathepsin K)/Ki(calpain) ratio of ≧30) | Sel cat. S: Ki(cathepsin S)/Ki(calpain) ratio (cathepsin S): ++ (++ means a Ki(cathepsin S)/Ki(calpain) ratio of ≧100) | Sel cat. B: Ki(cathepsin B)/Ki(calpain) ratio (cathepsin B): ++ (++ means a Ki(cathepsin B)/Ki(calpain) ratio of ≧30)
